{
  "source": "patent EP4458352A1",
  "about": "“EICOSAPENTAENOIC ACID ESTER DERIVATIVES FOR THE TREATMENT OF OBESITY” (Technische Universität Dresden, priority 2023, dated 2024)",
  "system": "primary adrenocortical cultures",
  "test": "Medulla explant-conditioned medium on primary adrenocortical cell cultures, steroids by LC-MS/MS",
  "format": "cell-based, WT C57BL/6J mice",
  "description": "Medullas were isolated from WT C57BL/6J mice and transferred into DMEM/F12 medium. Six hours later the medulla explant supernatants were collected and applied onto adrenocortical cell cultures. These were previously treated for 6 h with SC-26196 (10 µM) or DMSO. SC-26196 or DMSO were re-added and adrenocortical cells were incubated for another 18 h until supernatants were collected for steroid measurement. In other experiments, medulla explants were treated for 6 h with SC-26196 (10 µM) or DMSO, washed thoroughly and left another 18 h in culture. Their supernatant was then applied on adrenocortical cell cultures and 8 h later supernatants of the latter were collected and analyzed by LC-MS/MS.\nSteroid hormones in plasma and cell culture supernatants were analyzed by LC-MS/MS as previously described (71). Fifty to hundred µL plasma or cell culture supernatants were extracted by solid phase extraction using positive pressure, followed by a dry-down under gentle stream of nitrogen. […] Quantification of steroid concentrations was done by comparisons of ratios of analyte peak areas to respective peak areas of stable isotope labeled internal standards obtained in samples to those of calibrators.",
  "data": [
    {"smiles": "N#CC(CCCN1CCN(/N=C/c2cccnc2)CC1)(c1ccccc1)c1ccccc1", "note": "[SC-26196]", "values": [
      {"measurement": "steroid synthesis in cells receiving medulla-conditioned medium", "setting": "adrenocortical cells treated 6 h with SC-26196 10 µM, then conditioned medium for another 18 h, n=4-6", "result": "diminished steroid synthesis"},
      {"measurement": "increase of progesterone, 11-dehydrocorticosterone and corticosterone production by medulla-conditioned supernatants", "setting": "medulla explants treated 6 h with SC-26196 10 µM, washed, 18 h culture, supernatant on adrenocortical cells 8 h, n=8", "result": "attenuated"}
    ]}
  ]
}
